Columns and labels:
[1] = test system: erythroid (E) human bone marrow progenitor cells; experiment: Bone marrow progenitor cell assay, erythroid (E); settings: E cell assay, 14 days, colonies counted
[2] = test system: granulocyte macrophage (GM) human bone marrow progenitor cells; experiment: Bone marrow progenitor cell assay, granulocyte macrophage (GM); settings: GM cell assay, 14 days, colonies counted
DENV1 NS5 [3] = target: T1, DENV1 NS5 (Dengue virus type 1, UniProt P17763); experiment: Nucleotide analogue incorporation / discrimination assay, DENV1 NS5; assay type: biochemical; settings: GTP for AT-9010 and AT-9002, UTP for SOF-TP
Method: (§1) The chain-terminating efficiency of Compound 5 was measured in competitive nucleotide incorporation assays using all four DENV serotypes. […] In comparison, sofosbuvir triphosphate is incorporated into the RNA less than 1 time for every 100 UTP (native uridine triphosphate) incorporations.
(§2) Measurements and quantitations were as in FIG. 19B.
(§3) DENV NS5 was pre-incubated with the annealed P10/T20 RNA in an assembly buffer containing 20 mM HEPES pH 7.5, 10% glycerol, 5 mM MgCl2, and 5 mM DTT for 10 min at 30° C. to create an active RNA elongation complex.
(§4) Reactions were started by adding AT-9010 with either all four NTPs or UTP, ATP, and CTP only.
(§5) Single nucleotide incorporation was tested as follows. Reactions were started by adding the corresponding NTP or analogue. Final concentrations were 1 μM NS5, 0.25 μM P10/T20, 100 μM NTP or analogue in a final buffer containing 20 mM HEPES pH 7.5, 15% glycerol, 5 mM MgCl2, and 5 mM DTT.
(§6) Reactions were quenched at the designated time points in 3× volume FBD stop solution (formamide, 10 mM EDTA) and analyzed on 20% acrylamide-bisacrylamide (19:1) […] sequencing gels. RNA products were visualized using a Typhoon FluorImager then analyzed and quantified using ImageQuant software.

DENV2 NS5 [4] = target: T2, DENV2 NS5 (Dengue virus type 2, UniProt P14340); experiment: Nucleotide analogue incorporation / discrimination assay, DENV2 NS5; assay type: biochemical; settings: DENV2; GTP for AT-9010 and AT-9002, UTP for SOF-TP
Method: as §1
The experimental procedure is provided in Example 10.
as §2
DENV NS5 was preincubated with the annealed P10/T20 RNA in an assembly buffer containing 20 mM HEPES pH 7.5, 10% glycerol, 5 mM MgCl2 and 5 mM DTT for 10 min at 30° C. to create an active RNA elongation complex. Reactions were started by adding AT-9010 with either all four NTPs, or UTP, ATP and CTP only. […] Reactions were quenched at indicated timepoints in 2× volume FBD stop solution (formamide, 10 mM EDTA) and analysed on 20% acrylamide:bisacrylamide (19:1), […] sequencing gels. RNA products were visualized using a Typhoon FluorImager and analyzed using ImageQuant software.
as §3, §4, §5, §6

DENV3 NS5 [5] = target: T3, DENV3 NS5 (Dengue virus type 3, UniProt Q6YMS4); experiment: Nucleotide analogue incorporation / discrimination assay, DENV3 NS5; assay type: biochemical; settings: GTP for AT-9010 and AT-9002, UTP for SOF-TP
Method: as §1, §2, §3, §4, §5, §6

DENV4 NS5 [6] = target: T4, DENV4 NS5 (Dengue virus type 4, UniProt P09866); experiment: Nucleotide analogue incorporation / discrimination assay, DENV4 NS5; assay type: biochemical; settings: GTP for AT-9010 and AT-9002, UTP for SOF-TP
Method: as §1
The nature of regular inserted Watson-Crick nucleotides is indicated in the right of the gel. […] Quantification of band-products greater in size than the G/AT (+5) band relative to the G/AT (+5) band were measured using a Typhoon FluorImager, and allowed to calculate the discrimination value. The incorporation rates for […] and AT9002 are compared to that of GTP, and to that of UTP in the case of SOF-TP.
as §2, §3, §4, §5, §6

[7] = test system: NS5 RNA dependent RNA polymerase (RdRp); experiment: Competitive nucleotide incorporation assays, all four DENV serotypes (summary); assay type: biochemical, Dengue virus; settings: versus native uridine triphosphate
Method: As described in Example 10 and shown in FIG. 1, the active metabolite of Compound 2 or Compound 1 (Compound 5) acts as a GTP analog and is incorporated into RNA by the NS5 RNA dependent RNA polymerase (RdRp), immediately terminating synthesis.
as §1

[8] = test system: human induced pluripotent stem cell (iPS) cardiomyocytes; experiment: Cardiomyocyte cytotoxicity assay (CellTiter Glo); settings: iPS cardiomyocytes, 3 days
DENV1 NS5 [9] = target: T1, DENV1 NS5; experiment: Thermal shift assay, DENV1 NS5; settings: read-out: ΔTM
DENV2 NS5 [10] = target: T2, DENV2 NS5; experiment: Thermal shift assay, DENV2 NS5; settings: read-out: ΔTM
DENV3 NS5 [11] = target: T3, DENV3 NS5; experiment: Thermal shift assay, DENV3 NS5; settings: read-out: ΔTM
DENV4 NS5 [12] = target: T4, DENV4 NS5; experiment: Thermal shift assay, DENV4 NS5; settings: read-out: ΔTM
DENV1 RdRp domain = experiment: Thermal shift assay, DENV1 RdRp domain; settings: RdRp domain DENV1, 100 μM compound
DENV2 RdRp domain = DENV2 RdRp domain (Dengue virus type 2, UniProt P14340); experiment: Thermal shift assay, DENV2 RdRp domain; settings: read-out: ΔTM
DENV3 RdRp domain = experiment: Thermal shift assay, DENV3 RdRp domain; settings: RdRp domain DENV3, 100 μM compound
DENV4 RdRp domain = experiment: Thermal shift assay, DENV4 RdRp domain; settings: RdRp domain DENV4, 100 μM compound
DENV1 MTase domain = DENV1 MTase domain (Dengue virus type 1, UniProt P17763); experiment: Thermal shift assay, DENV1 MTase domain; settings: read-out: ΔTM
DENV2 MTase domain = DENV2 MTase domain (Dengue virus type 2, UniProt P14340); experiment: Thermal shift assay, DENV2 MTase domain; settings: read-out: ΔTM
DENV3 MTase domain = DENV3 MTase domain (Dengue virus type 3, UniProt Q6YMS4); experiment: Thermal shift assay, DENV3 MTase domain; settings: read-out: ΔTM
DENV4 MTase domain = DENV4 MTase domain (Dengue virus type 4, UniProt P09866); experiment: Thermal shift assay, DENV4 MTase domain; settings: read-out: ΔTM
DENV4 MTase domain, sequence (P09866 2489-2751): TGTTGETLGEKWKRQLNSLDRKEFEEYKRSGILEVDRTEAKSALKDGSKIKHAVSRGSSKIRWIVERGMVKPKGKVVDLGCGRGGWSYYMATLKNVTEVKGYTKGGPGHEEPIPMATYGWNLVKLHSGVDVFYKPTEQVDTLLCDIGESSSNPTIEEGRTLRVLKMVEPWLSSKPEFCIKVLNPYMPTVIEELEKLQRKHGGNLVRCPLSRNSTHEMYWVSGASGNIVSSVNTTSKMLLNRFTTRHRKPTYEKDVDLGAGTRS

T3 sequence (Q6YMS4 2491-3390): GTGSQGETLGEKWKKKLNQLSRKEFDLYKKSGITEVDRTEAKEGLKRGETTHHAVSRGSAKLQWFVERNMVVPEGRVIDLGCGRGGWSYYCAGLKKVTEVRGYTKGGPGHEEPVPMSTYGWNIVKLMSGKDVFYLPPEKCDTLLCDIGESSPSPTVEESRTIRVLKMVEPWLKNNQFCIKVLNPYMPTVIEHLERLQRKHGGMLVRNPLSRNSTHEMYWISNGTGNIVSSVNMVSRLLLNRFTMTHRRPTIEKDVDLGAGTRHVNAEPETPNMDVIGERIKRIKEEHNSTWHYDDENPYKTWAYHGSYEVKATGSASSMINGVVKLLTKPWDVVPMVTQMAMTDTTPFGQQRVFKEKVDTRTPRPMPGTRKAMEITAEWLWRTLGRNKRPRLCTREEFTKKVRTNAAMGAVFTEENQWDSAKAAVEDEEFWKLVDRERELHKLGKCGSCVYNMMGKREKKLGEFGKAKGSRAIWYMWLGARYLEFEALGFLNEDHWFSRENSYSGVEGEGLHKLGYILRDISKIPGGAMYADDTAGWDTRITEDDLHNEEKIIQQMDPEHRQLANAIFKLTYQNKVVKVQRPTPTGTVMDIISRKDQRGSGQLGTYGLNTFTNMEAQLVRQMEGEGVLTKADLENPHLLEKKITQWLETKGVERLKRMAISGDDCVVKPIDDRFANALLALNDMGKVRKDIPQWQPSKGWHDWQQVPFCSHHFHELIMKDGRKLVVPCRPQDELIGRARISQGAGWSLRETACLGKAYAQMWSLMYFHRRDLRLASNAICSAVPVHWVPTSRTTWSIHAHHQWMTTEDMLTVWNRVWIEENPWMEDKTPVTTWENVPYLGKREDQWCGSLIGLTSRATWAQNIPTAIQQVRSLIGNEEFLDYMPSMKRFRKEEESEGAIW
T4 sequence (P09866 2488-3387): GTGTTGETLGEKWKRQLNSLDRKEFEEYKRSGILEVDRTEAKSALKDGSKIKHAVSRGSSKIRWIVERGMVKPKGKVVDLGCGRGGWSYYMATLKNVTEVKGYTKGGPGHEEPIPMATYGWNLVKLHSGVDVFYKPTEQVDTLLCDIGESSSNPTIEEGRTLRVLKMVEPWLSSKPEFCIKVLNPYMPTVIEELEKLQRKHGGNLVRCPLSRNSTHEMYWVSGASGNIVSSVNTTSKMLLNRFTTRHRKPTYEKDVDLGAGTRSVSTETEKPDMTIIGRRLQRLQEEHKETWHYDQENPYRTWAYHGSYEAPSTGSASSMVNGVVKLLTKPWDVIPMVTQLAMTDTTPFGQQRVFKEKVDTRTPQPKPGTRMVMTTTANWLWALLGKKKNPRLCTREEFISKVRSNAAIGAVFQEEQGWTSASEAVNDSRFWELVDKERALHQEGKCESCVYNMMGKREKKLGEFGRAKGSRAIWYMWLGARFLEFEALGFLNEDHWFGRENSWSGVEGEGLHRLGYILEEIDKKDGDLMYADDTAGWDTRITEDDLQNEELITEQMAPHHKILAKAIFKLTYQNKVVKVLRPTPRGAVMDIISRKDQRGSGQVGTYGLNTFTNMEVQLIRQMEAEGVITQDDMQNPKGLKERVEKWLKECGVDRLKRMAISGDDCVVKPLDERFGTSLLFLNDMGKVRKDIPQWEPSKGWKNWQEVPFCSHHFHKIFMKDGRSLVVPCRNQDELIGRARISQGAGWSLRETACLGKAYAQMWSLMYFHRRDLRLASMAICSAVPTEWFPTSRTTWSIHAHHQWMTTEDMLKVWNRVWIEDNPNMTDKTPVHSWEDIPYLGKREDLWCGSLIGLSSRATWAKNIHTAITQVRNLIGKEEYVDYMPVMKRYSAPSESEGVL
T1 sequence (P17763 2494-3392): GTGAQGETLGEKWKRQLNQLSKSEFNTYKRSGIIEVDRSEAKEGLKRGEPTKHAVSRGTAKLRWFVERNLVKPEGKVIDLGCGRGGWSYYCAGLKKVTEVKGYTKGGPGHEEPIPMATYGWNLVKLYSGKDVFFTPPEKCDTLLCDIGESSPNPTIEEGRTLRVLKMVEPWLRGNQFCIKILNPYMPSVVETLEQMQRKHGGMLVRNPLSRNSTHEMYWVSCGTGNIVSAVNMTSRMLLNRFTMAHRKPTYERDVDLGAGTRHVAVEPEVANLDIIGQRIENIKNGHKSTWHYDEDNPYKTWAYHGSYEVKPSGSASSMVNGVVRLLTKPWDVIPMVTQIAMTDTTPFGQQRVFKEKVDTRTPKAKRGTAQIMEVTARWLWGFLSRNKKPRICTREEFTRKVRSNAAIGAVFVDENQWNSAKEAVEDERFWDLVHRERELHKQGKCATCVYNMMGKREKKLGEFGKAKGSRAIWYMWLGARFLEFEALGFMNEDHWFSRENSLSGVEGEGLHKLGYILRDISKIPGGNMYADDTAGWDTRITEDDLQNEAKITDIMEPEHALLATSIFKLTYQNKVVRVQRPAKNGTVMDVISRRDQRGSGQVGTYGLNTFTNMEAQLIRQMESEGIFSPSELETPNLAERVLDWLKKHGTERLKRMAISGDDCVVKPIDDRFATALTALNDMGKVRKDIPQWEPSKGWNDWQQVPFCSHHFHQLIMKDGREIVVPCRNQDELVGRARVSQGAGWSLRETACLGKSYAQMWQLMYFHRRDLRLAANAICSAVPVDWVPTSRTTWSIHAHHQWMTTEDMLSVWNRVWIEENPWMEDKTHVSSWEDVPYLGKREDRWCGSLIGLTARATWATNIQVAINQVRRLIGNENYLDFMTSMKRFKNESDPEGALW
DENV3 MTase domain, sequence (Q6YMS4 2492-2753): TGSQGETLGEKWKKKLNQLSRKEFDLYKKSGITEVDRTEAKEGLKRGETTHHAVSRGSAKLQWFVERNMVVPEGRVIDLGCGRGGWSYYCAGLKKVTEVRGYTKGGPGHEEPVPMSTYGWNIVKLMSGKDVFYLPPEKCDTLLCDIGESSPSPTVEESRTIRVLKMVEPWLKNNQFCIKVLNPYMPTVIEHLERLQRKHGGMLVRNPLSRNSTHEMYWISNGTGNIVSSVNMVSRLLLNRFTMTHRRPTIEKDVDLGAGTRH
DENV1 MTase domain, sequence (P17763 2495-2756): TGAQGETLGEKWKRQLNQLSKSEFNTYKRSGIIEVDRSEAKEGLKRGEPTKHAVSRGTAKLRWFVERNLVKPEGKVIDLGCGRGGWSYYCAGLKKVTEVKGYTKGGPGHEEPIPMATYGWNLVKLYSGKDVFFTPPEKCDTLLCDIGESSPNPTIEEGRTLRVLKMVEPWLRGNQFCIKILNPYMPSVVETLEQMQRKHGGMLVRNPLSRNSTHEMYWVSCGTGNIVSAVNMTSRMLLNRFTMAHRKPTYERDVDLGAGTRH

Compound | Preference (discrimination) native nucleotide > analogue (DENV1 NS5 [3]) | Preference (discrimination) native nucleotide > analogue (DENV2 NS5 [4]) | Preference (discrimination) native nucleotide > analogue (DENV3 NS5 [5]) | Preference (discrimination) native nucleotide > analogue (DENV4 NS5 [6]) | ΔTm at 100 µM (DENV1 NS5 [9]) [°C] | ΔTm at 100 µM (DENV2 NS5 [10]) [°C] | ΔTm at 100 µM (DENV3 NS5 [11]) [°C] | ΔTm at 100 µM (DENV4 NS5 [12]) [°C] | ΔTm at 100 µM (DENV2 RdRp domain) [°C] | ΔTm at 100 µM (DENV1 MTase domain) [°C] | ΔTm at 100 µM (DENV2 MTase domain) [°C] | ΔTm at 100 µM (DENV3 MTase domain) [°C] | ΔTm at 100 µM (DENV4 MTase domain) [°C] | other results
Cc1cn([C@H]2C[C@H](N=[N+]=[N-])[C@@H](CO)O2)c(=O)[nH]c1=O [AZT, reference compound] | – | – | – | – | – | – | – | – | – | – | – | – | – | CC50 [1]: 3 µM; CC50 [2]: 2 µM
sofosbuvir triphosphate [SOF-TP] | >100 | >100 | >100 | >100 | – | – | – | – | – | – | – | – | – | incorporations into the RNA for every 100 UTP incorporations [7]: less than 1
C[C@@]1(O)[C@H](O)[C@@H](COP(=O)(O)OP(=O)(O)OP(=O)(O)O)O[C@H]1n1cnc2c(=O)[nH]c(N)nc21 [AT-9002, 2′-methylguanosine triphosphate] | 19.4 ± 2.8 | 18.2 ± 0.2 | 17.5 ± 1.5 | 41.5 ± 7.3 | – | – | – | – | – | – | – | – | – | –
COc1cc2nc(N3CCN(C(=O)C4COc5ccccc5O4)CC3)nc(N)c2cc1OC (stereo not drawn) [doxazosin, reference compound] | – | – | – | – | – | – | – | – | – | – | – | – | – | CC50 [8]: 7 µM
Nc1nc2c(ncn2[C@@H]2O[C@H](COP(=O)(O)OP(=O)(O)OP(=O)(O)O)[C@@H](O)[C@H]2O)c(=O)[nH]1 [GTP, guanosine triphosphate] | – | – | – | – | 5.8 ± 0.1 | 5.7 ± 0.1 | 4.8 ± 0.1 | 3.9 ± 0.1 | 2.4 ± 0.1 | 4.9 ± 0.1 | 5.7 ± 0.1 | 4.1 ± 0.1 | 4 ± 0.1 | ΔTM (DENV1 RdRp domain): 4.5±0.2 °C; ΔTM (DENV3 RdRp domain): 2.2 ± 0.1 °C; ΔTM (DENV4 RdRp domain): 3.3 ± 0.1 °C
Nc1ncnc2c1ncn2[C@@H]1O[C@H](C[C@@H](N)CC[C@H](N)C(=O)O)[C@@H](O)[C@H]1O [Sinefungin, sinefungin] | – | – | – | – | 1.2 ± 0.1 | 1.4 ± 0.1 | 1.8 ± 0.1 | 1.4 ± 0.1 | -0.8 ± 0.1 | 1.9 ± 0.1 | 2.9 ± 0.1 | 2.1 ± 0.1 | 2.8 ± 0.1 | –
